Data set [1] in a line: Dynamic moisture sorption (DMS) assessment. It counts as physicochemical. As to conditions: exposed to up to 90% RH. As to the method: A dynamic moisture sorption (DMS) assessment (also known as a moisture sorption-desorption profile) was performed for samples of the crystalline diacetate salt using a VTI atmospheric microbalance, SGA-100 system (VTI Corp., Hialeah, Fla. 33016). A sample size of approximately 10 mg was used and the humidity was set at the ambient value at the start of the analysis. A typical DMS analysis consisted of three scans: ambient to 2% relative humidity (RH), 2% RH to 90% RH, 90% RH to 5% RH at a scan rate of 5% RH/step. The mass was measured every two minutes and the RH was changed to the next value (+/−5% RH) when the mass of the sample was stable to within 0.01% for 5 consecutive points.

A short description of data set [2]: Differential scanning calorimetry (DSC), thermal decomposition. It counts as physicochemical. As to conditions: heating ramp 10° C./min. How it is done:
DSC was performed using a TA Instruments Model Q-10 module with a Thermal Analyst controller, and data were collected and analyzed using TA Instruments Thermal Solutions software. A sample of about 1 mg of the crystalline diacetate salt was accurately weighed into an aluminum pan with lid, and evaluated using a linear heating ramp of 10° C./min from ambient temperature to approximately 300° C. The DSC cell was purged with dry nitrogen during use. A representative DSC trace for this salt is shown in FIG. 2 and depicts one transition at about 114° C., no thermal decomposition below about 160° C., and maximum endothermic heat flow at about 112° C.
(In general: In DSC, transitions show as peaks or steps in heat flow.)

The target in data set [3] is T1, M3 muscarinic receptor subtype (Homo sapiens, UniProt P20309).
T1 construct: expressed in transfected cells; crude membranes prepared in house
T1 sequence (P20309 whole entry): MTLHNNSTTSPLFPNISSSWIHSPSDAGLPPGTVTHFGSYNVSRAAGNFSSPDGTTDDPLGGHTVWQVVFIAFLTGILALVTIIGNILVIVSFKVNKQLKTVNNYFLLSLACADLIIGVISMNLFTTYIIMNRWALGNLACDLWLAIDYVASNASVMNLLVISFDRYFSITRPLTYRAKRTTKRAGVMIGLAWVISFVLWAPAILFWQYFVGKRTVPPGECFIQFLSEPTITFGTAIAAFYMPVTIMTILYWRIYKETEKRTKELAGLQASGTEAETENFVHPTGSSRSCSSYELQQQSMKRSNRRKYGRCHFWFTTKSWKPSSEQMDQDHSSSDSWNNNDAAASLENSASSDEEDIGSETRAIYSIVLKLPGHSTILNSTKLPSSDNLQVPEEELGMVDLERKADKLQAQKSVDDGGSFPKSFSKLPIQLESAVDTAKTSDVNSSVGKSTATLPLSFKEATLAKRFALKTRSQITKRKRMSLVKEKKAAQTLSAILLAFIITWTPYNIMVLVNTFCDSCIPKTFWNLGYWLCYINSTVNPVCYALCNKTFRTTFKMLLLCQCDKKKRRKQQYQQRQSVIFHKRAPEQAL
Description: Radioligand binding assay ([3H]-NMS displacement, CHO cell membranes). As to conditions: tested in this or a similar assay. As to the method:
CHO cell lines stably expressing cloned human hM1, hM2, hM3 and hM4 muscarinic receptor subtypes, respectively, were grown to near confluency in medium consisting of HAM's F-12 supplemented with 10% FBS and […]. The cells were grown in a 5% CO2, 37° C. incubator and lifted with 2 mM EDTA in dPBS. Cells were collected by 5 minute centrifugation at 650×g, and cell pellets were either stored frozen at −80° C. or membranes were prepared immediately. For membrane preparation, cell pellets were resuspended in lysis buffer and homogenized with a Polytron PT-2100 tissue disrupter (Kinematica AG; 20 seconds×2 bursts). Crude membranes were centrifuged at 40,000×g for 15 minutes at 4° C. […] The protein concentration of the membrane suspension was determined by the method described in Lowry, O. et al., […] 193:265 (1951). […]
Radioligand binding assays were performed in 96-well microtiter plates in a total assay volume of 100 μL. […] Filter plates were rinsed three times with wash buffer (10 mM HEPES) to remove unbound radioactivity. […] The plates were then counted in a PerkinElmer Topcount liquid scintillation counter (PerkinElmer Inc., Wellesley, Mass.). Binding data were analyzed by nonlinear regression analysis with the GraphPad Prism Software package (GraphPad Software, Inc., San Diego, Calif.) using the one-site competition model. […]

The structures appear in SMILES notation. Counter-ions that a name gives are not always drawn.

For orientation: Ki means a measure of affinity in units of concentration, obtained from inhibition or displacement. A lower Ki goes with tighter binding.

Consider `CN(CCN1CCC(OC(=O)Nc2ccccc2-c2ccccc2)CC1)C(=O)c1cccc(C(=O)NCCNCc2ccc(O)cc2)c1` [crystalline diacetate salt, biphenyl-2-ylcarbamic acid 1-[2-({3-[2-(4-hydroxybenzylamino)ethylcarbamoyl]benzoyl}methylamino)ethyl]piperidin-4-yl ester], for which the “weight gain in DMS (reversible sorption/desorption profile)” value in data set [1] is on record as “less than 18%”. Besides, the “no thermal decomposition below (DSC trace)” value in data set [2] is ≥ 160 °C.

Consider `CN(CCN1CCC(OC(=O)Nc2ccccc2-c2ccccc2)CC1)C(=O)c1cccc(C(=O)NCCNCc2ccc(O)cc2)c1` [crystalline dipropionate salt, Biphenyl-2-ylcarbamic Acid 1-[2-({3-[2-(4-Hydroxybenzylamino)ethylcarbamoyl]benzoyl}methylamino)ethyl]piperidin-4-yl Ester], for which the “weight gain in DMS (reversible sorption/desorption profile)” value in data set [1] is recorded as “less than 11%”. The “no thermal decomposition below (DSC trace)” value in data set [2] was ≥ 150 °C.

As for `CN(CCN1CCC(OC(=O)Nc2ccccc2-c2ccccc2)CC1)C(=O)c1cccc(C(=O)NCCNCc2ccc(O)cc2)c1` [Example 1, Biphenyl-2-ylcarbamic Acid 1-[2-({3-[2-(4-Hydroxybenzylamino)ethylcarbamoyl]benzoyl}methylamino)ethyl]piperidin-4-yl Ester], the Ki in data set [3] was < 5 nM.

For the compound `CN(CCN1CCC(OC(=O)Nc2ccccc2-c2ccccc2)CC1)C(=O)c1cccc(C(=O)NCCNCc2ccc(O)cc2)c1` [crystalline monooxalate salt, Biphenyl-2-ylcarbamic Acid 1-[2-({3-[2-(4-Hydroxybenzylamino)ethylcarbamoyl]benzoyl}methylamino)ethyl]piperidin-4-yl Ester], in data set [1], the “weight gain in DMS (reversible sorption/desorption profile)” value is reported as “less than 14%”. Further, the “no thermal decomposition below (DSC trace)” value in data set [2] is ≥ 150 °C.

For the origin of these results see patent US8124627B2, “Biphenyl compounds useful as muscarinic receptor antagonists” (Theravance, Inc., priority 2005, dated 2012).
